Consider 1 molecule from US8058242B2, “Chimeric proteins with natriuretic activity” (The University of Queensland, priority 2004, dated 2011).

For data set [1], the target named is Endopeptidase (NEP) (EC 3.4.24.11) (Homo sapiens, UniProt P08473). The experiment in a line: Stability to enzymatic degradation by NEP (Examples 7, 16). The conditions noted are these: over the 180 min measurement period, 37° C. The format is in vitro ADME. As for the experimental part:
The incubation buffer contained 100 mM Tris/HCl and 150 mM NaCl and the pH was adjusted to 7.2-7.4. In each assay, 100 μl of peptide [500 μM] was incubated with 300 μl buffer (with 500 ng Endopeptidase (NEP) or 10 μg Plasmin) at 37° C. 50 μl aliquots were taken at times 5 min, 30 min, 60 min, 90 min, 180 min and 24 h. The reaction was quenched by heating to 100° C. for 4 min and the remaining peptide concentrations measured by RP-HPLC. Note that the levels of Plasmin required to degrade these peptides was several thousands time the levels present in human plasma.
The stability of TDT and was investigated using the same enzymatic degradation assays (NEP, plasmin, pepsin) disclosed in Example 7. […] It is also evident that the increased NEP stability cannot be explained by the length of the tail region alone as the NEP cleavage site residues at the N-terminal end of the loop region.

Data set [2] in a line: Stability assay in rat plasma (Example 6). The format is in vitro ADME. As to conditions: 24 h at 37° C., read-out: peptide remaining in plasma. The protocol:
(§1) Stability assay in human and rat plasma: Human or rat plasma (sample size 200 μL) was incubated at 37° C. for 5 min. 50 μL peptide stock solution (5 mg/mL) was added to the plasma. The vortexed reaction mixture was incubated at 37° C. Sample aliquots of 30 μL were taken from the reaction mixture at sequential intervals of 0 h, 1 h, 2 h, 4 h and 24 h and the sample reaction quenched immediately with 30 μL extraction buffer containing 50% Acetonitrile, 50% 0.1 M NaCl and 1% TFA. The quenched aliquots were cooled in ice for 5 min prior to centrifugation at 14,000 rpm for 15 min. 20 μl of the supernatant from each of the centrifuged aliquots was injected into RP-HPLC for analysis.

The nature of data set [3]: Stability assay in human plasma (Example 6). The format is in vitro ADME. As to conditions: 24 h at 37° C., read-out: peptide remaining in plasma. As for the experimental part: Plasma preparation: Blood samples (from healthy human volunteers) were drawn into a sealed tube containing ethylene diamine tetra-acetic acid (EDTA). After sampling, the plasma was separated by centrifugation at 14,000 rpm for 30 min. Plasma was taken out and stored in separated Eppendorf tubes at −20° C.
as §1

The next data set has as its target T1, rat GC-A (Rattus norvegicus, UniProt P18910).
T1 construct: expressed in transfected cells
T1 sequence (P18910 29-1057): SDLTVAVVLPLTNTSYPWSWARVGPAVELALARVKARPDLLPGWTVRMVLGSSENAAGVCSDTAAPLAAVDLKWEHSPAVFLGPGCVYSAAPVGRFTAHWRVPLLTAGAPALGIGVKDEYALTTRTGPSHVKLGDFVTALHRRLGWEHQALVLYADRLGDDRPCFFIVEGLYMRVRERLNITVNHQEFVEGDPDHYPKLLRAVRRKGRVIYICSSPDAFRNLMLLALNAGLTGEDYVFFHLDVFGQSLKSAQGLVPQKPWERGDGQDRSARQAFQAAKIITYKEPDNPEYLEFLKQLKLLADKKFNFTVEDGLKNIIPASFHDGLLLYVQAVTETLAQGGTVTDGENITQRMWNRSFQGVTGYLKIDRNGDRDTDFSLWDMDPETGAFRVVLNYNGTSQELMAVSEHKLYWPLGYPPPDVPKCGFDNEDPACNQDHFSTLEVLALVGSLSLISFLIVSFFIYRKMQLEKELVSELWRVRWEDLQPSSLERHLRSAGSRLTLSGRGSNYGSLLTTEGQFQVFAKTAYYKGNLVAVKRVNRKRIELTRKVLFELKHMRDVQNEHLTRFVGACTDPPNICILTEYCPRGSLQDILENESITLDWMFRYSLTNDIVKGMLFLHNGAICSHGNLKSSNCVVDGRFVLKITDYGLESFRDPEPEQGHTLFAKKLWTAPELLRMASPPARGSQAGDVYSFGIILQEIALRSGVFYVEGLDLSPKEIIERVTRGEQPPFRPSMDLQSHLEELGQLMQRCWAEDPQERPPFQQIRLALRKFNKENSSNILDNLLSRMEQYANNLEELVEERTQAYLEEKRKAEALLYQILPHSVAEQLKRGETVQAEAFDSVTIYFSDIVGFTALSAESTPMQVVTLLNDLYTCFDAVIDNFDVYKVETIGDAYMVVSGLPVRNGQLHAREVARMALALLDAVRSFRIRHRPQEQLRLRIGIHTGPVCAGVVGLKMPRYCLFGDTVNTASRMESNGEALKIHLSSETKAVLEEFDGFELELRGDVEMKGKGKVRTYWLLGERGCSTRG
The data set is described as follows: Cell cyclic GMP elevations in HEK-293 cells stably expressing rat GC-A (Example 4). The format is cell-based. As to conditions: 0.1 μM; 293 cells over-expressing GC-A. The source says: The human embryonic kidney 293 (HEK-293) cell line was used for the stable expression of rat GC-A (GC-A/293). Cells expressing rat GC-A (GC-A/293) in the HEK-293 cell line were as previously described (Potter L. R., and Garbers D. L., (1992), J Biol Chem. 26, 14531-4) and determination of cGMP elevations was undertaken as previously described (Chrisman et al. T. D., Schulz, S., Potter, L. R. and Garbers, D. L., (1993,) J. Biol. Chem. (1993) 268 (5), 3698-3703). Responses were expressed as a percentage of the effect produced by ANP.

Positions of bridges follow the written chain, without caps; N, C: chain ends. Residues, ends and D or L forms follow the SMILES beside them.

Chain of Endopeptidase (NEP) (EC 3.4.24.11) (P08473 whole entry): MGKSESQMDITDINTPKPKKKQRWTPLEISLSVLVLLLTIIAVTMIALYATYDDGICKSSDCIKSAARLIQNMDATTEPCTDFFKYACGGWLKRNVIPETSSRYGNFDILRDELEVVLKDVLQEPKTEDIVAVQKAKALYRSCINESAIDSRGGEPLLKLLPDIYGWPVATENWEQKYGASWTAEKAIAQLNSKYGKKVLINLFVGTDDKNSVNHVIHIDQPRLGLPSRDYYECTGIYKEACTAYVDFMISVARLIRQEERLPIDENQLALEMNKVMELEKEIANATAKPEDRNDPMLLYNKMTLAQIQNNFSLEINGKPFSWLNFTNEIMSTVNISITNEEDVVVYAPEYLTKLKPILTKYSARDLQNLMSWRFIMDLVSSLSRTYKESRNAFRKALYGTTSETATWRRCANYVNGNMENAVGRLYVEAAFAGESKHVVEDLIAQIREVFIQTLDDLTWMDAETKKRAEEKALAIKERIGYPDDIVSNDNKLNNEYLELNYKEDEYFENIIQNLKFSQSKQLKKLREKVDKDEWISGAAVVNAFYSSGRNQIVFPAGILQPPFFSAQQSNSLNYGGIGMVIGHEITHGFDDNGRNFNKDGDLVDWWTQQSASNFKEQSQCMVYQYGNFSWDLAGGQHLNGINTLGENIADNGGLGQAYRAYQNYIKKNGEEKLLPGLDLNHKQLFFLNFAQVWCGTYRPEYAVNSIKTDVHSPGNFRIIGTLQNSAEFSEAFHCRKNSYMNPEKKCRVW

For `CC[C@H](C)[C@H](NC(=O)[C@H](CCCCN)NC(=O)[C@H](CO)NC(=O)[C@H](CC(=O)O)NC(=O)[C@@H](N)CO)C(=O)NCC(=O)N[C@@H](CC(N)=O)C(=O)NCC(=O)N[C@H]1CSSC[C@@H](C(=O)N[C@@H](CC(N)=O)C(=O)N[C@@H](CCCNC(=N)N)C(=O)N[C@H](C(=O)N[C@@H](CCSC)C(=O)N[C@@H](CCC(N)=O)C(=O)N[C@@H](CC(N)=O)C(=O)N2CCC[C@H]2C(=O)N2CCC[C@H]2C(=O)N[C@@H](CCCCN)C(=O)N[C@@H](CCCCN)C(=O)N[C@@H](Cc2ccccc2)C(=O)N[C@@H](CO)C(=O)NCC(=O)N[C@@H](CCC(=O)O)C(=O)O)[C@@H](C)CC)NC(=O)CNC(=O)[C@H](CC(C)C)NC(=O)CNC(=O)[C@H](CO)NC(=O)[C@H](C(C)C)NC(=O)[C@H](CO)NC(=O)CNC(=O)[C@H]([C@@H](C)CC)NC(=O)[C@H](CCCNC(=N)N)NC(=O)[C@H](CC(=O)O)NC(=O)[C@H](CC(C)C)NC(=O)[C@@H]2CCCN2C(=O)[C@H](Cc2ccccc2)NC(=O)CNC(=O)[C@H](Cc2ccccc2)NC1=O` [TNPc] (H-SDSKIGNGCFGFPLDRIGSVSGLGCNRIMQNPPKKFSGE-OH; disulfide 9-25), the “degradation by NEP” value in data set [1] is “did not show any degradation”. Also, the results for the share remaining at 24 h, 1 mg/mL in data set [2] and in data set [3] were 76% and 72%, respectively. For the same molecule, the “cGMP elevations, percentage of the effect produced by ANP” value on rat GC-A was “equipotent to ANP and DNP”.
